Laboratory results from patent US20110319362A1, “STAT3 LIGANDS AND THERAPEUTIC USES THEREOF” (priority 2008, published 2011).
Like-named read-outs stand apart in the source and are kept apart here. Where a SMILES comes first, the peptide text is derived from it. [ ]: non-standard residue; d: D form. The star is where a group is joined. 5FAM = O=C1OC2(c3ccc(O)cc3Oc3cc(O)ccc32)c2ccc(C(=O)*)cc21; pY = N[C@@H](Cc1ccc(OP(=O)(O)O)cc1)C(=O)O; βAla = NCCC(=O)O

Legend:
[1] = test system: MDA-MB-468 cancer cell line; test: Cell growth assay (WST-8); assay type: cell-based; conditions: Homo sapiens, MDA-MB-468, 96 h, WST-8, 4 days
Protocol: (§1) The effect of STAT3 compounds on cell growth was evaluated by a WST-8 [2-(2-methoxy-4-nitrophenyl)-3-(4-nitrophenyl)-5-(2,4-disulfophenyl)-2H-tetrazolium, monosodium salt assay (Dojindo Molecular Technologies, Inc). Cells (3000-4000 cells in each well) were cultured in 96-well tissue culture plates in medium (200 μL) containing various concentrations of STAT3 compounds for 4 days. At the end of incubation, WST-8 dye (20 μL) was added to each well and incubated for an additional 1-3 h, and then the absorbance was measured in a microplate reader (Molecular Devices) at 450 nm. Cell growth inhibition was evaluated as the ratio of the absorbance of the sample to that of the control.

[2] = test system: MDA-MB-231 cancer cell line; test: Cell growth assay (WST-8); assay type: cell-based; conditions: Homo sapiens, MDA-MB-231, 96 h, WST-8, 4 days
Protocol: as §1

[3] = target: T1, STAT3 protein (Homo sapiens, UniProt P40763); test: In vitro competitive STAT3 binding assay (fluorescence polarization)
T1 construct: human STAT3 protein (residues 122-722) fused to His-tag; His-tag
Description: To quantitatively determine the binding affinities of STAT3 inhibitors to STAT3 protein, a sensitive and quantitative in vitro binding assay was developed based upon fluorescence polarization (FP) method. For this FP assay, 5-carboxyfluorescein (5-Fam) was coupled to a phosphopeptide (phospho-Tyr-Leu-Pro-Gln-Thr-Val-amide) with two beta-alanine and one glycine residues as the spacer between 5-Fam and the phosphopeptide to obtain 5-Fam-beta-Ala-beta-Ala-Gly-phospho-Tyr-Leu-Pro-Gln-Thr-Val-amide as the fluorescently tagged tracer, which was named as STT2 peptide. […] The recombinant human STAT3 protein (residues 122-722) fused to His-tag was stable and soluble.
Competitive binding experiments were carried out using 150 nM of STAT3 protein and 5 nM of STT2 peptide with different concentrations of a tested STAT3 inhibitor. For each experiment, two controls were included. One control contained STAT3 protein and STT2 peptide, and the second control contained STT2 peptide only. The polarization values were measured after 2-3 hours of incubation using an ULTRA READER (Tecan U.S. Inc., Research Triangle Park, N.C.). IC50 values, the inhibitor concentration at which 50% of the fluorescently tagged STT2 peptide is displaced by STAT3 inhibitors, was determined from a plot using nonlinear least-squares analysis using GRAPHPAD PRISM software (GraphPad Software, Inc., San Diego, Calif.). […]

[4] = read-out: Inhibition of cell growth IC50, MDA-MB-468 cancer cell line
[5] = read-out: Inhibition of cell growth IC50, MDA-MB-231 cancer cell line
[6] = FP competitive binding, fluorescently tagged STT2 peptide tracer, read-out: Binding affinities to STAT3 IC50
[7] = Table 2 prints no column heads, columns and unit as in Table 1, read-out: Inhibition of cell growth IC50, MDA-MB-468 cancer cell line (pro-drugs, Table 2)
[8] = Table 2 prints no column heads, columns and unit as in Table 1, read-out: Inhibition of cell growth IC50, MDA-MB-231 cancer cell line (pro-drugs, Table 2)

T1 sequence (P40763 122-722): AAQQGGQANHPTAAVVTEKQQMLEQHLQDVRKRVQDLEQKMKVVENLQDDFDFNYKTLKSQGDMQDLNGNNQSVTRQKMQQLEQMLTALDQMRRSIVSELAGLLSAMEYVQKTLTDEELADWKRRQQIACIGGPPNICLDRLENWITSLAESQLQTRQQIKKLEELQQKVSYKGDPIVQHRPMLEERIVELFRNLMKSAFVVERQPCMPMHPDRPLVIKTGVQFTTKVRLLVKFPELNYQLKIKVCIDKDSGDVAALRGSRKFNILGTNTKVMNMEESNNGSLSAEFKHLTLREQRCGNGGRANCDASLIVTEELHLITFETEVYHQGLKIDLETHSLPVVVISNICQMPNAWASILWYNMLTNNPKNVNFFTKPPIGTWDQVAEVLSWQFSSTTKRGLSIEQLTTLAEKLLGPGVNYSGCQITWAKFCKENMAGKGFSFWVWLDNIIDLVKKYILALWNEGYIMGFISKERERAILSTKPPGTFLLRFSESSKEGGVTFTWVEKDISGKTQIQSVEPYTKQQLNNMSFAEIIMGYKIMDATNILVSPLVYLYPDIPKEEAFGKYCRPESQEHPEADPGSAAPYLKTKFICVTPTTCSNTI

SMILES	IC50 [1, 4] [µM]	IC50 [2, 5] [µM]	IC50 [3, 6] [µM]	IC50 [3] [µM]	IC50 [1, 7] [µM]	IC50 [2, 8] [µM]	Kd [3] [µM]
CN[C@H](Cc1ccc(OCP(=O)(O)O)cc1)C(=O)N[C@H]1CCCCC2CC[C@@H](C(=O)N[C@@H](Cc3c[nH]cn3)C(=O)NCc3ccccc3)N2C1=O (stereo partly shown)	> 100	> 100	< 100				
CP(=O)(O)CCCCCC(=O)N[C@H]1CCCCC2CC[C@@H](C(=O)N[C@@H](CCC(N)=O)C(=O)NCc3ccccc3)N2C1=O (stereo partly shown)	> 100	> 100	> 100				
COP(=O)(OC)Oc1ccc(C[C@H](N)C(=O)N[C@H]2CCCCC3CC[C@@H](C(=O)N[C@@H](C)C(=O)NCc4ccccc4)N3C2=O)cc1 (stereo partly shown)	> 100	> 50		> 100			
CC(=O)N[C@@H](Cc1ccc(OC(C(=O)O)C(=O)O)cc1)C(=O)N[C@H]1CCCCC2CC[C@@H](C(=O)N[C@@H](CCC(N)=O)C(=O)NCc3ccccc3)N2C1=O (stereo partly shown)	> 100	> 50	< 10				
CC(C)(C)C(=O)OCOP(=O)(O)COc1ccc(C[C@H](NC(=O)OCc2ccccc2)C(=O)N[C@H]2CCCCC3CC[C@@H](C(=O)N[C@@H](CCC(N)=O)C(=O)NCc4ccccc4)N3C2=O)cc1 (stereo partly shown)					> 50	> 50	
CCOC(=O)C(Oc1ccc(C[C@@H](C(=O)N[C@H]2CCCCC3CC[C@@H](C(=O)N[C@@H](CCCNC(C)=O)C(=O)NCc4ccccc4)N3C2=O)N(C)C)cc1)C(=O)OCC (stereo partly shown)	> 100	> 100	> 10				
NC(=O)CC[C@H](NC(=O)[C@@H]1CCC2CCNC[C@H](NC(=O)[C@@H](N)Cc3ccc(OP(=O)(O)O)cc3)C(=O)N21)C(=O)NCc1ccccc1 (stereo partly shown)	> 100	> 100		< 100			
CC(=O)NCCC[C@H](NC(=O)[C@@H]1CCC2CCCC[C@H](NC(=O)[C@H](Cc3ccc(OC(C(=O)O)C(=O)O)cc3)N(C)C)C(=O)N21)C(=O)NCc1ccccc1 (stereo partly shown)	> 100	> 100	> 10				
CN(C)[C@@H](Cc1ccc(OCP(=O)(O)O)cc1)C(=O)NC1CCCC[C@H]2CC[C@@H](C(=O)N[C@@H](Cc3c[nH]cn3)C(=O)NCc3ccccc3)N2C1=O (stereo in doubt) [Example 33]	> 100	> 100	> 100				
CCOC(=O)C(Oc1ccc(C[C@H](NC(C)=O)C(=O)N[C@H]2CCCCC3CC[C@@H](C(=O)N[C@@H](CCC(N)=O)C(=O)NCc4ccccc4)N3C2=O)cc1)C(=O)OCC (stereo partly shown)	> 100	> 30	> 100				
CN[C@@H](Cc1ccc(OC(C(=O)O)C(=O)O)cc1)C(=O)N[C@H]1CCCCC2CC[C@@H](C(=O)N[C@@H](Cc3c[nH]cn3)C(=O)NCc3ccccc3)N2C1=O (stereo partly shown)	> 100	> 100	> 10				
NC(=O)CC[C@H](NC(=O)[C@@H]1CC[C@@H]2CCCC[C@H](NC(=O)CCc3ccc(O)c(C(=O)O)c3)C(=O)N21)C(=O)NCc1ccccc1 [Example 24]	> 100	> 100	> 100				
CC(=O)N[C@@H](Cc1ccc(OCP(=O)(O)O)cc1)C(=O)NC1CCCC[C@H]2CC[C@@H](C(=O)N[C@@H](Cc3c[nH]cn3)C(=O)NCc3ccccc3)N2C1=O (stereo in doubt) [Example 32]	> 100	> 100		< 30			
CC(=O)N[C@@H](Cc1ccc(CP(=O)(O)O)cc1)C(=O)N[C@H]1CCCC[C@H]2CC[C@@H](C(=O)N[C@@H](Cc3c[nH]cn3)C(=O)NCc3ccccc3)N2C1=O [Example 27]		> 100		> 10			
CN(C)[C@@H](Cc1ccc(OCP(=O)(O)O)cc1)C(=O)NC1CCCC[C@H]2CC[C@@H](C(=O)N[C@@H](Cc3c[nH]cn3)C(=O)NCCc3ccccc3)N2C1=O (stereo in doubt) [Example 34]	> 100	> 100	< 30				
O=C(CC[C@H](NC(=O)[C@@H]1CCC2CCCC[C@H](NC(=O)[C@H](Cc3ccc(OP(=O)(O)O)cc3)NC(=O)OCc3ccccc3)C(=O)N21)C(=O)NCc1ccccc1)NC(c1ccccc1)(c1ccccc1)c1ccccc1 (stereo partly shown)	< 50	< 50		< 20			

SMILES	IC50 [1, 4] [µM]	IC50 [2, 5] [µM]	IC50 [3, 6] [µM]	IC50 [3] [µM]	IC50 [1, 7] [µM]	IC50 [2, 8] [µM]	Kd [3] [µM]
CN(C)[C@@H](Cc1ccc(OP(=O)(O)O)cc1)C(=O)N[C@H]1CCCCC2CC[C@@H](C(=O)N[C@@H](CCC(N)=O)C(=O)NCc3ccccc3)N2C1=O (stereo in doubt) [Example 36]	> 100	> 100	< 5				
CCCCCCCCCCCCCCCCN1CCN(CCC(=O)N[C@@H](Cc2ccc(OP(=O)(O)O)cc2)C(=O)N[C@H]2CCCCC3CC[C@@H](C(=O)NCCc4nnc[nH]4)N3C2=O)CC1 (stereo partly shown)	< 20	< 20	< 5				
CC(=O)N[C@@H](Cc1ccc(OCP(=O)(O)O)cc1)C(=O)N[C@H]1CCCCC2CC[C@@H](C(=O)N[C@@H](CCC(N)=O)C(=O)NCc3ccccc3)N2C1=O (stereo in doubt) [Example 31]		> 100		< 10			
NC(=O)CC[C@H](NC(=O)[C@@H]1CCC2CCCC[C@H](NC(=O)c3cc4cc(C(F)(F)P(=O)(O)O)ccc4[nH]3)C(=O)N21)C(=O)NCc1ccccc1 (stereo partly shown) [Example 59]	> 100			< 1			
CCCCCCCCCCCCCCCCNC(=O)C(CCC(N)=O)NC(=O)[C@@H]1CCC2CCCC[C@H](NC(=O)c3cc4cc(C(F)(F)P(=O)(O)O)ccc4[nH]3)C(=O)N21 (stereo partly shown) [Example 66]	> 100			< 1			
CCCCCCCCN(CCCCCCCC)[C@@H](Cc1ccc(OP(=O)(O)O)cc1)C(=O)N[C@H]1CCCCC2CC[C@@H](C(=O)N[C@@H](CCC(N)=O)C(=O)NCc3ccccc3)N2C1=O (stereo partly shown)		> 100	< 100				
NC(=O)CC[C@H](NC(=O)[C@@H]1CCC2CCCC[C@H](NC(=O)[C@H](Cc3ccc(OP(=O)(O)O)cc3)NC(=O)CCOCCOCCOCCOCCNC(=O)CCCCC3SCC4NC(=O)NC43)C(=O)N21)C(=O)NCc1ccccc1 (stereo partly shown)				< 1			
CCCCCCCCCCCCCCCCN1CCN(CCC(=O)N[C@@H](Cc2ccc(OP(=O)(O)O)cc2)C(=O)N[C@H]2CCCCC3CC[C@@H](C(=O)NCCc4nnn[nH]4)N3C2=O)CC1 (stereo partly shown)	< 50	< 50					
Cn1c(C(=O)N[C@H]2CCCCC3CC[C@@H](C(=O)NC(CCC(N)=O)C(=O)NCc4ccccc4)N3C2=O)cc2cc(C(F)(F)P(=O)(O)O)ccc21 (stereo partly shown) [Example 61]	> 100		< 5				
CC(C)(C)C(=O)OCOP(=O)(Cc1ccc(C[C@H](NC(=O)OCC2c3ccccc3-c3ccccc32)C(=O)N[C@H]2CCCCC3CC[C@@H](C(=O)N[C@@H](CCC(N)=O)C(=O)NCc4ccccc4)N3C2=O)cc1)OCOC(=O)C(C)(C)C (stereo partly shown)					< 10	< 10	
CN(C)[C@@H](Cc1ccc(CP(=O)(O)O)cc1)C(=O)N[C@H]1CCCC[C@H]2CC[C@@H](C(=O)N[C@@H](Cc3c[nH]cn3)C(=O)NCc3ccccc3)N2C1=O [Example 28]	> 100		> 10				
NC(=O)CCC(NC(=O)[C@@H]1CCC2CCCC[C@H](NC(=O)c3cc4cc(C(F)(F)P(=O)(O)O)ccc4o3)C(=O)N21)C(=O)NCc1ccccc1 (stereo partly shown) [Example 65]	> 100		> 10				
CC(C)(C)C(=O)OCOP(=O)(COc1ccc(C[C@H](NC(=O)OCc2ccccc2)C(=O)N[C@H]2CCCCC3CC[C@@H](C(=O)N[C@@H](CCC(N)=O)C(=O)NCc4ccccc4)N3C2=O)cc1)OCOC(=O)C(C)(C)C (stereo partly shown)					> 50	> 50	
CC(C)C[C@H](NC(=O)[C@H](Cc1ccc(OP(=O)(O)O)cc1)NC(=O)CNC(=O)CCNC(=O)CCNC(=O)c1ccc2c(c1)C(=O)OC21c2ccc(O)cc2Oc2cc(O)ccc21)C(=O)N1CCC[C@H]1C(=O)N[C@@H](CCC(N)=O)C(=O)N[C@H](C(=O)N[C@H](C(N)=O)C(C)C)[C@@H](C)O [STT2 peptide, 5-Fam-beta-Ala-beta-Ala-Gly-phospho-Tyr-Leu-Pro-Gln-Thr-Val-amide, reference compound] ({5FAM-βAla-βAla}-G[pY]LPQTV-NH2)							0.047
CCOP(=O)(O)CCCCCC(=O)N[C@H]1CCCC[C@H]2CC[C@@H](C(=O)N[C@@H](CCC(N)=O)C(=O)NCc3ccccc3)N2C1=O [Example 23]		> 100	> 100				
